{
  "source": "patent US20230181719A1",
  "about": "“NGR CONJUGATES AND USES THEREOF” (OSPEDALE SAN RAFFAELE S.R.L., priority 2020, published 2023)",
  "key": {"αvβ8": {"target": "αvβ8 (Homo sapiens, UniProt P06756+P26012)", "test": "Competitive binding of acetyl-CisoDGRCG/streptavidin-peroxidase to integrin-coated microtiterplates", "conditions": "mean ± SE", "description": "(§1) To assess whether the isoDGR derivative of S-NGR-TNF and NGR-TNF targeting domains can recognize integrins with similar affinities inventors then analysed the binding of SCisoDGRCGVRY (SEQ ID NO: 17), CisoDGRCGVRY and acetyl-CisoDGRCGVRY to αvβ3, αvβ5, αvβ6 αvβ8 and α5β1 integrins using a competitive binding assay previously described (Curnis et al. 2010). […] As expected […] (SEQ ID NO: 3) and […] […] Considering that human NGR-TNF contains acetylated and non-acetylated forms and that both CNGRC (SEQ ID NO:5) and acetyl-CNGRC can undergo deamidation (Curnis et al. 2010), inventors can conclude that the isoDGR derivative of S-NGR-TNF, if formed, behave in a manner similar to those of the isoDGR derivatives of NGR-TNF in terms of integrin recognition."}, "αvβ6": {"target": "αvβ6 (Homo sapiens, UniProt P06756+P18564)", "test": "Competitive binding of acetyl-CisoDGRCG/streptavidin-peroxidase to integrin-coated microtiterplates", "conditions": "mean ± SE", "description": "as §1"}, "αvβ3": {"target": "αvβ3 (Homo sapiens, UniProt P05106+P06756)", "test": "Competitive binding of acetyl-CisoDGRCG/streptavidin-peroxidase to integrin-coated microtiterplates", "description": "as §1"}, "αvβ5": {"target": "αvβ5 (Homo sapiens, UniProt P06756+P18084)", "test": "Competitive binding of acetyl-CisoDGRCG/streptavidin-peroxidase to integrin-coated microtiterplates", "conditions": "mean ± SE", "description": "as §1"}, "α5β1": {"target": "α5β1 (Homo sapiens, UniProt P05556+P08648)", "test": "Competitive binding of acetyl-CisoDGRCG/streptavidin-peroxidase to integrin-coated microtiterplates", "conditions": "mean ± SE", "description": "as §1"}, "CD13 (aminopeptidase N)": {"target": "T1, CD13 (aminopeptidase N) (Homo sapiens, UniProt P15144)", "T1 construct": "histidine tag", "test": "CD13 enzyme kinetics inhibition assay (L-alanine p-nitroanilide substrate)", "format": "biochemical", "conditions": "in different experimental conditions", "description": "FIG. 10. The peptide SCNGRCGVRY (SEQ ID NO: 3) inhibits CD13 enzymatic activity more efficiently than CNGRCGVRY (SEQ ID NO:4) and acetylated-CNGRCGVRY. A) Steady state kinetic analysis of CD13 in the presence of various amounts of L-alanine p-nitroanilide substrate and SCNGRCGVRY (SEQ ID NO: 3), CNGRCGVRY (SEQ ID NO:4), or acetylated-CNGRCGVRY (ac-CNGRCGVRY) (SEQ ID NO:42). A representative plot of 3-4 independent experiments, showing the initial velocity (V0) versus substrate concentration (mean ± SE of four technical replicates), is shown. The assays were performed with recombinant human histidine-tagged CD13 (200-300 ng/ml) in 60 mM potassium phosphate buffer, pH 7.4, at room temperature. The kinetic of p-nitroanilide formation was monitored spectrophotometrically (A405 nm) for 5-10 min. The inhibitory constant (Ki) reported in each plot is the result of the 3-4 independent experiments (mean ± SE). B) Double reciprocal plots of the experiments reported in panel A.\nTo rule out the possibility that the addition of the serine residue to the N-terminus of NGR-TNF abrogates or reduces its affinity for CD13 inventors performed enzyme kinetics inhibition assays with CD13 (aminopeptidase N) and SCNGRCGVRY (SEQ ID NO: 3), CNGRCGVRY (SEQ ID NO:4) or acetyl-CNGRCGVRY (corresponding to the N-terminal region of human S-NGR-TNF and NGR-TNF)."}, "[1]": {"test": "Peptide deamidation stability upon incubation at 37° C., by mass spectrometry", "format": "physicochemical", "conditions": "after 32 h at 37° C. in PBS, pH 7.4", "method": "FIG. 11. The peptide SCNGRCGVRY (SEQ ID NO: 3) has a lower propensity to deamidate than CNGRCGVRY (SEQ ID NO:4) in a physiological buffer at […], but not in ammonium bicarbonate buffer at pH 8.5. A and B) MS analysis of SCNGRCGVRY (SEQ ID NO: 3) and CNGRCGVRY (SEQ ID NO:4) after incubation at 37° C. for the indicated time in 50 mM sodium phosphate buffer, pH 7.4 (PBS) or 0.1 M ammonium bicarbonate buffer, pH 8.5 (Ambic). The values +0, + 1, -17 reported in the plot correspond to the difference between the observed and the expected molecular mass of peptides expressed in daltons. MS analysis was performed using the LTQ-Orbitrap mass spectrometer (Thermo Scientific).\nTo assess whether the addition of the serine residue to CNGRCG (SEQ ID NO:1) might affect its deamidation propensity inventors synthetized the SCNGRCGVRY (SEQ ID NO: 3) and CNGRCGVRY (SEQ ID NO:4) peptides and studied their stability upon incubation at 37° C. in PBS, pH 7.4, by mass spectrometry.\nA similar experiment was then performed with peptides in 0.1 M ammonium bicarbonate, pH 8.5, a condition known to force Asn deamidation (Curnis et al. 2006). […] Furthermore, the succinimide-derivative of S-NGR-TNF, when formed, is more prone to hydrolysis."}},
  "note": "pKi: −log10 of the molar value. Positions of bridges follow the written chain, without caps; N, C: chain ends. Residues, ends and D or L forms follow the SMILES beside them.",
  "data": [
    {"smiles": "CC(C)[C@H](NC(=O)CNC(=O)[C@@H]1CSSC[C@H](NC(=O)[C@@H](N)CO)C(=O)N[C@@H](CC(N)=O)C(=O)NCC(=O)N[C@@H](CCCNC(=N)N)C(=O)N1)C(=O)N[C@@H](CCCNC(=N)N)C(=O)N[C@@H](Cc1ccc(O)cc1)C(=O)O", "note": "[SCNGRCGVRY, SCNGRCGVRY (SEQ ID NO: 3)] (H-SCNGRCGVRY-OH; disulfide 2-6; N-terminus and C-terminus assumed)", "values": [
      {"measurement": "pKi", "setting": "αvβ8", "value": "< 5.00"},
      {"measurement": "pKi", "setting": "αvβ6", "value": "< 5.00"},
      {"measurement": "pKi", "setting": "αvβ3; mean ± SE", "value": "< 5.00"},
      {"measurement": "affinity for integrins", "setting": "αvβ3; αvβ3, αvβ5, αvβ6, αvβ8 and α5β1 (all integrins)", "value": "no or very low affinity"},
      {"measurement": "pKi", "setting": "αvβ5", "value": "< 5.00"},
      {"measurement": "pKi", "setting": "α5β1", "value": "< 5.00"},
      {"measurement": "Ki value for CD13 lower than that of CNGRCGVRY", "setting": "CD13 (aminopeptidase N)", "value": "3-5 fold"},
      {"measurement": "+1 Da deamidation product (DGR/isoDGR)", "setting": "[1]", "value": "observed"},
      {"measurement": "-17 Da form still present", "setting": "[1]", "value": "not"}
    ]}
  ]
}
